This is an account of results in patent publication US10011596B2, “2-amino-3-fluoro-3-(fluoromethyl)-6-methyl-6-phenyl-3,4,5,6-tetrahydropyridines as BACE1 inhibitors” (H. Lundbeck A/S, priority 2015, dated 2018).

Read-outs that look alike come from different tables or passages of the source.

The subject of one data set is P-gp (MDR1). Briefly: MDCK-MDR1 assay (permeability, efflux ratio). Format: in vitro ADME. The settings on record: dog. The procedure:
The permeability of the test compounds was assessed in MDCK-MDR1 cells that were cultured to confluency (4-6 days) in a 96 transwell plate. Test compounds were diluted with the transport buffer (HBSS+1% BSA) to a concentration of 0.5 μM and applied to the apical or basolateral side of the cell monolayer. Permeation of the test compounds from A to B direction or B to A direction was determined in triplicate over a 60-minute incubation time at 37° C. and 5% CO2 with a relative humidity of 95%. Test compounds were quantified by LC-MS/MS analysis based on the peaks area ratios of analyte/IS in both the receiver and donor wells of the transwell plate.
The apparent permeability coefficient Papp (cm/s) was calculated using the equation: Papp=(dCr/dt)×Vr/(A×C0)
Where dCr/dt is the cumulative concentration of compound in the receiver chamber as a function of time (μM/s); Vr is the solution volume in the receiver chamber (0.05 mL on the apical side; 0.25 mL on the basolateral side); A is the surface area for the transport, i.e. 0.0804 cm^2 for the area of the monolayer; C0 is the initial concentration in the donor chamber (μM).

Data set [1] has as its target T1, human BACE1 (Homo sapiens, UniProt P56817). In words: BACE1 efficacy assay (FRET-based, commercial BACE1 kit). Format: biochemical. The arrangement: purchased Life Technologies P2985. As to conditions: test compound at 10 μM. As to the method: The efficacy assay was performed as a FRET-based assay using a commercially available BACE1 kit (Life Technologies, P2985). 2 μl test compound at 10 μM (final concentration) and 15 μl BACE1 enzyme from the kit (final concentration 3 nM) were preincubated for 15 minutes at room temperature before addition of 15 μl of substrate from the kit (250 nM final concentration) and incubated for additional 90 minutes at room temperature. The assay plate was subsequently read in a Pherastar (Ex540/Em590).

In data set [2] the target is T1, human BACE1. Briefly: BACE1 binding assay (SPA-based, radioligand displacement). The arrangement: biotin (biotinylated form); made in house; host or cells: Freestyle HEK293 cells. As to conditions: pH 4.5, 10 nM radioligand, 6 nM human BACE1, read-out: BACE1 binding affinity. The procedure:
The binding assay was performed as SPA-based assay using a biotinylated form of human BACE1 recombinantly expressed and subsequently purified from Freestyle HEK293 cells. The binding assay was run in a 50 mM sodium acetate buffer, pH 4.5 containing 50 mM NaCl and 0.03% Tween-20 in white clear bottom 384 plates (Corning #3653). 10 nM (final concentration) radioligand ([^3H]-N-((1S,2R)-1-benzyl-3-cyclopropylamino-2-hydroxy-propyl)-5-(methanesulfonyl-methyl-amino)-N-((R)-1-phenyl-ethyl)-isophthalamide) (TRQ11569 purchased from GE Healthcare) was mixed with test compound at a given concentration, 6 nM (final concentration) human BACE1 and 25 μg Streptavidin coated PVT core SPA beads (RPNQ0007, GE Healthcare Life Sciences) in a total volume of 40 μl. Several concentrations of each test compound were tested in the assay for IC50 determination. The plates were incubated for one hour at room temperature and counted in a WaIlac Trilux counter. […] For each test compound, a IC50 value (the concentration mediating 50% inhibition of the specific binding of the radioligand) was determined from concentration-response curve and used to calculate the Ki from the equation Ki=IC50/(1+L/Kd), where L and Kd are the final concentration of the radioligand used in the assay and the dissociation constant of the radioligand, respectively. The Kd of the radioligand was determined from saturation binding experiments.

Data set [3] is described as follows: Bioanalysis of brain and plasma samples (exposure, UPLC-MS/MS). Format: in vivo, rat. As to conditions: male, Sprague Dawley, po, 3 hours post dose; for Kp at 3 h: brain/plasma, rat, read-out: Brain/Plasma ratio. As to the method:
Young adult Male Sprague Dawley rats of approximately 250 g weight were purchased from Charles River and received 0-30 mg/kg of vehicle (10% HP betaCD+1M MeSO4, pH 2.5) or test compounds (dissolved in vehicle) only by oral gavage (p.o). The compounds are dosed at a volume of 5 ml/kg. Cohorts of 5-10 animals were established for each treatment condition.
At T=180 minutes after initial dosing the animals were stunned and decapitated with a guillotine. Trunk-blood was sampled in EDTA coated tubes after decapitation of the animal. The blood was centrifuged at 2200 G at 4° C. for 15 minutes and the plasma was collected and frozen at −80° C. The blood was aliquoted for Aβ ELISA and pharmacokinetic analysis. Immediately following sacrifice, the brain was extracted and split into 2 halves. The right hemibrains were snap frozen on dry ice and stored at −80° C. The left half was dissected; with the front forebrain taken for Aβ ELISA and the remainder used for DMPK analysis. These samples were also snap frozen on dry ice and stored at −80° C. until use for analysis.
TC (test compound) was determined in plasma and brain homogenate using UltraPerformance LC® (U PLC®) chromatography followed by tandem-MS (MS/MS) detection.
Brain homogenate was prepared by homogenizing the brain 1:4 (v/v) with water:2-propanol:DMSO (50:30:20 v/v/v) followed by centrifugation and collection of the supernatant. Calibration standards and QC samples were prepared using a Hamilton robot. 150 μL of ISTD in acetonitrile (1 ng/mL ISTD) was added to 25 μL of calibration standards, QC samples and test samples (plasma and brain homogenate) using a Biomek robot. After centrifugation (6200 g, 4° C., 20 min) 100 μL supernatant from each sample was transferred to a new plate and mixed with 100 μL water with 0.1% formic acid using a Biomek robot (method file InVivo transfer). After a quick centrifugation (6200 g, 4° C., 5 min) the samples were placed in the auto-sampler.
MS/MS detection was done with an Applied Biosystems Sciex API 4000 instrument in positive-ion electrospray ionisation mode. TC and ISDD were detected at a parent>daughter mass to charge ratio (m/z). Nitrogen was used for the nebulizer and collision gases. The peak area correlated linearly with the plasma and brain concentration of the analytes in the range of 1.00-1000 ng/mL plasma and 5.00-5000 ng/g brain (corrected for dilution). If the plasma/brain sample drug concentration was above 1000 ng/mL or 5000 ng/g, the sample was diluted appropriately in blank plasma/blank brain homogenate before analysis.
Compound 1 was administered at doses of 10 mg/kg p.o. and 30 mg/kg p.o. and brain and plasma samples were collected at 3 hours post dose and the following exposures were measured as described above.

The mark [4] stands for this setting: rat brain, 10 mg/kg p.o., read-out: Exp (ng/g), brain.
[5] abbreviates: rat brain, 30 mg/kg p.o., read-out: Exp (ng/g), brain.
Where [6] appears, read: rat plasma, 10 mg/kg p.o., read-out: Exp (ng/g), plasma.
Setting [7] is: rat plasma, 30 mg/kg p.o., read-out: Exp (ng/g), plasma.

T1 sequence (P56817 46-501): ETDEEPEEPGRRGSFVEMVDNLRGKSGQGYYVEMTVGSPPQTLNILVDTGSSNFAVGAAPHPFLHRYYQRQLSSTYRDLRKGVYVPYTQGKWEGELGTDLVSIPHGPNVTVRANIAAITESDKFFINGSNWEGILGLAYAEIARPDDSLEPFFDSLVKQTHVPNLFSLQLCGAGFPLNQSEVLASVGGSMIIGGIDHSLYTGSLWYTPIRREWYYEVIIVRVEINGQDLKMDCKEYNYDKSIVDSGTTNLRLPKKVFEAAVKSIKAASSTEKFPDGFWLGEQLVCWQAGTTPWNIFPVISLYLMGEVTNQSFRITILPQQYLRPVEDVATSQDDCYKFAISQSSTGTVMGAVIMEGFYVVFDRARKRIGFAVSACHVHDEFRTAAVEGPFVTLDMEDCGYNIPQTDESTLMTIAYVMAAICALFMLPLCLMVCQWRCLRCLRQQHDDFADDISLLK

For `COc1ccc(C(=O)Nc2ccc(F)c([C@]3(C)CC[C@@](F)(CF)C(N)=N3)c2)nc1` [Compound 1, N-(3-((2S,5S)-6-Amino-5-fluoro-5-(fluoromethyl)-2-methyl-2,3,4,5-tetrahydropyridin-2-yl)-4-fluorophenyl)-5-methoxypicolinamide], the efflux ratio at 60 min, 0.5 µM with P-gp (MDR1) stood at 0.89. In addition, on human BACE1 [1], the inhibition at 10 µM turned out to be 106%. The Ki at human BACE1 [2] worked out at 22 nM.
The corresponding values for `COc1ccc(C(=O)Nc2ccc(F)c([C@]3(C)CC[C@](F)(CF)C(N)=N3)c2)nc1` [Compound 14, N-(3-((2S,5R)-6-Amino-5-fluoro-5-(fluoromethyl)-2-methyl-2,3,4,5-tetrahydropyridin-2-yl)-4-fluorophenyl)-5-methoxypicolinamide] are 1.06, 103% and 130 nM.
Taken in the same sequence, the figures for `[2H]C([2H])([2H])Oc1ccc(C(=O)Nc2ccc(F)c([C@]3(C)CC[C@@](F)(CF)C(N)=N3)c2)nc1` [Compound 2, N-(3-((2S,5S)-6-Amino-5-fluoro-5-(fluoromethyl)-2-methyl-2,3,4,5-tetrahydropyridin-2-yl)-4-fluorophenyl)-5-(methoxy-d3)picolinamide] were 2.32, 104% and 20 nM.
Taken in the same sequence, the figures for `C[C@@]1(c2cc(NC(=O)c3ccc(F)cn3)cc(F)c2F)CC[C@@](F)(CF)C(N)=N1` [Compound 15, N-[3-[(2S,5S)-6-Amino-5-fluoro-5-(fluoromethyl)-2-methyl-2,3,4,5-tetrahydropyridin-2-yl]-4,5-difluoro-phenyl]-5-fluoro-pyridine-2-carboxamide] were 1.17, 104% and 52 nM.
As for `COc1cnc(C(=O)Nc2cc(F)c(F)c([C@]3(C)CC[C@](F)(CF)C(N)=N3)c2)cn1` [Compound 20, N-[3-[(2S,5R)-6-Amino-5-fluoro-5-(fluoromethyl)-2-methyl-2,3,4,5-tetrahydropyridin-2-yl]-4,5-difluoro-phenyl]-5-methoxy-pyrazine-2-carboxamide], the efflux ratio at 60 min, 0.5 µM in the data set with P-gp (MDR1) amounted to 0.77. For the same molecule, the inhibition at 10 µM on human BACE1 [1] is 102%. Also, on human BACE1 [2], the Ki amounted to 230 nM.
On to `Cc1nc(C(=O)Nc2ccc(F)c([C@]3(C)CC[C@@](F)(CF)C(N)=N3)c2)co1` [Compound 6], for which, in the data set with P-gp (MDR1), the efflux ratio at 60 min, 0.5 µM was 7. For the same molecule, the inhibition at 10 µM on human BACE1 [1] came out at 106%. Also, on human BACE1 [2], the Ki was determined as 46 nM.
As to `C[C@@]1(c2cc(NC(=O)c3coc(C(F)F)n3)ccc2F)CC[C@@](F)(CF)C(N)=N1` [Compound 9], in the data set on P-gp (MDR1), the efflux ratio at 60 min, 0.5 µM amounted to 8.61. On human BACE1 [1], the inhibition at 10 µM worked out at 103%. Further, the Ki at human BACE1 [2] turned out to be 26 nM.
Regarding `C[C@@]1(c2cc(NC(=O)c3ccc(F)cn3)ccc2F)CC[C@@](F)(CF)C(N)=N1` [Compound 13, N-(3-((2S,5S)-6-Amino-5-fluoro-5-(fluoromethyl)-2-methyl-2,3,4,5-tetrahydropyridin-2-yl)-4-fluorophenyl)-5-fluoropicolinamide], the efflux ratio at 60 min, 0.5 µM in the data set with P-gp (MDR1) is 1.5. Further, on human BACE1 [1], the inhibition at 10 µM was determined as 100%. Further, the figures for the Kp at 3 h in data set [3] (10 mg/kg p.o.) and in data set [3] (30 mg/kg p.o.) were 1.25 and 1.59, respectively. In addition, the concentration at 3 h in data set [3] (setting [4]) was found to be 588 ng/g; in data set [3] (setting [5]), 1590 ng/g; in data set [3] (setting [6]), 469 ng/g; in data set [3] (setting [7]), 1000 ng/g. In addition, at human BACE1 [2], the Ki is 40 nM.
As to `COc1cnc(C(=O)Nc2ccc(F)c([C@]3(C)CC[C@@](F)(CF)C(N)=N3)c2)cn1` [Compound 5, N-(3-((2S,5S)-6-Amino-5-fluoro-5-(fluoromethyl)-2-methyl-2,3,4,5-tetrahydropyridin-2-yl)-4-fluorophenyl)-5-methoxypyrazine-2-carboxamide], the efflux ratio at 60 min, 0.5 µM in the data set with P-gp (MDR1) amounted to 1.07. For the same molecule, on human BACE1 [1], the inhibition at 10 µM was 103%. Further, the Kp at 3 h in data set [3] (10 mg/kg p.o.) is 1.95; in data set [3] (30 mg/kg p.o.), 2.74. Besides, the concentration at 3 h came out at 536 ng/g in data set [3] (setting [4]), 1610 ng/g in data set [3] (setting [5]), 275 ng/g in data set [3] (setting [6]) and 587 ng/g in data set [3] (setting [7]). Also, the Ki on human BACE1 [2] came to 24 nM.
With `Cc1cc(C#N)cnc1C(=O)Nc1ccc(F)c([C@]2(C)CC[C@@](F)(CF)C(N)=N2)c1` [Compound 3, N-(3-((2S,5S)-6-Amino-5-fluoro-5-(fluoromethyl)-2-methyl-2,3,4,5-tetrahydropyridin-2-yl)-4-fluorophenyl)-5-cyano-3-methylpicolinamide], the efflux ratio at 60 min, 0.5 µM in the data set on P-gp (MDR1) is 4.87. At human BACE1 [1], the inhibition at 10 µM was found to be 105%. Further, the Ki on human BACE1 [2] was 10 nM.
The corresponding values for `C[C@@]1(c2cc(NC(=O)c3ccn(C(F)F)n3)ccc2F)CC[C@@](F)(CF)C(N)=N1` [Compound 10] are 10.6, 103% and 22 nM.
Taken in the same sequence, the figures for `C[C@@]1(c2cc(NC(=O)c3ccc(Cl)cn3)ccc2F)CC[C@@](F)(CF)C(N)=N1` [Compound 4, N-(3-((2S,5S)-6-Amino-5-fluoro-5-(fluoromethyl)-2-methyl-2,3,4,5-tetrahydropyridin-2-yl)-4-fluorophenyl)-5-chloropicolinamide] were 1.34, 102% and 11 nM.
